SMILES strings stand for the structures. Square brackets hold non-standard residues; d marks the D form. Peptide text beside a SMILES is read from it. * marks the point of attachment. ξ: configuration not given here. Propanoyl(3-(3-pyridyl)) = O=C(CCc1cccnc1)*; His(τ-Me) = Cn1cnc(C[C@H](N)C(=O)O)c1; Sta = CC(C)C[C@H](N)[C@@H](O)CC(=O)O; NHC(Me)(CH2OH)2 = CC(CO)(CO)N*; NHC(CH2OH)3 = OCC(CO)(CO)N*; ξ3Pal = NC(Cc1cccnc1)C(=O)O; Isovaleryl = CC(C)CC(=O)*; Nle = CCCC[C@H](N)C(=O)O; Boc = CC(C)(C)OC(=O)*; X2 = OCC1(N*)CCCCC1; X1 = CC(C)(CO)N*

One assay has as its target T1, human plasma renin activity (PRA) (Homo sapiens, UniProt P00797).
T1 construct: from tissue; host or cells: human plasma pool
T1 sequence (P00797 67-406): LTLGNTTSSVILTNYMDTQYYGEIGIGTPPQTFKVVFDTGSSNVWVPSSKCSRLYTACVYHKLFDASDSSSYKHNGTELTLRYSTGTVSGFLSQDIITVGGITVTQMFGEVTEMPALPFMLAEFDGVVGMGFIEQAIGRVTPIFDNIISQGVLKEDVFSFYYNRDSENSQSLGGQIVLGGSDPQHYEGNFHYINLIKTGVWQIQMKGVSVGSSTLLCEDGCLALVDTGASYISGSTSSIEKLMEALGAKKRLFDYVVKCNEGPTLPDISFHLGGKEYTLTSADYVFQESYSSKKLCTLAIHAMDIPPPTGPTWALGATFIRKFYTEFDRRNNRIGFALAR
The experiment in a line: Inhibition of human plasma renin activity (PRA), angiotensin I released measured by radioimmunoassay. It is filed as biochemical. The note with it: human plasma pool, 60 minutes at 37° C., phosphate buffer pH 7.4; IC50 evaluated in mol, expressed as -log IC50. The procedure: The products according to the invention were studied for their therapeutic properties and especially their inhibitory action on enzymes. More particularly, the compounds were evaluated "in vitro" in terms of their inhibition of human plasma renin activity (PRA).
The method of evaluation is based on that of GUYENE (J. Clin. Endocrinol. Metab., 1976, 43, 1301). The inhibition of PRA is evaluated from a human plasma pool rich in renin ([…] of angiotensin I released per milliliter per hour), incubated for 60 minutes at 37° C., in a phosphate buffer at pH 7.4, in the presence of increasing concentrations of the product to be studied.
Human plasma contains the substrate angiotensinogen and the enzyme:renin. The angiotensin I released during the reaction is measured by radioimmunoassay: Plasma Renin Activity Kit from Travenol (nos. CA 533, 553). An inhibitor of the conversion enzyme, phenylmethylsulfonyl fluoride (PMSF), is added to the incubation medium. The total incubation volume is 555 microliters made up as follows:
420 microliters of human plasma
11 to 50 microliters of the product to be studied, at variable concentrations
119 to 80 microliters of phosphate buffer 5 microliters of PMSF.
A 1N solution of acetic acid in methanol (19/1 by volume) and a 1N solution of sodium hydroxide in methanol (2/1 by volume) are prepared. In a mixture of equal volumes of these 2 solutions, a 0.001M stock solution of the product to be studied is prepared. The subsequent dilutions are then made up in the phosphate buffer.
The results are expressed as their logarithmic value (-log IC50).
Usually IC50 stands for the concentration that inhibits the measured activity by half. Turning to `CCCC[C@H](NC(=O)[C@H](Cc1ccccc1)NC(=O)CCc1cccnc1)C(=O)N[C@@H](Cc1ccccc1)[C@@H](O)CC(=O)N[C@H](C(=O)NC(CO)(CO)CO)[C@@H](C)CC` [SR 43 603], the IC50 was 0.479 nM.
For `CC[C@H](C)[C@H](NC(=O)C[C@H](O)[C@H](CC1CCCCC1)NC(=O)[C@H](Cc1nc2ccccc2[nH]1)NC(=O)[C@H](Cc1ccccc1)NC(=O)OC(C)(C)C)C(=O)NC(C)(CO)CO` [SR 44 125], the IC50 was 36.3 nM.
On the same count and under the same terms, the result for `CC[C@H](C)[C@H](NC(=O)C[C@H](O)[C@H](CC(C)C)NC(=O)[C@H](Cc1cn(C)cn1)NC(=O)[C@H](Cc1ccccc1)NC(=O)CCc1cccnc1)C(=O)NC(C)(C)CO` [SR 43 966] ({Propanoyl(3-(3-pyridyl))}-F[His(τ-Me)][Sta]I-X1) reads 19.1 nM; that for `CC[C@H](C)[C@H](NC(=O)C[C@H](O)[C@H](CC(C)C)NC(=O)C(Cc1cccnc1)NC(=O)[C@H](Cc1ccccc1)NC(=O)OC(C)(C)C)C(=O)NC(C)(CO)CO` (some centres unmarked) [SR 43 763] (Boc-F[ξ3Pal][Sta]I-{NHC(Me)(CH2OH)2}), 77.6 nM; that for `CC[C@H](C)[C@H](NC(=O)C[C@H](O)[C@H](CC(C)C)NC(=O)[C@H](Cc1c[nH]cn1)NC(=O)[C@H](Cc1ccccc1)NC(=O)CCc1cccnc1)C(=O)NC(C)(CO)CO` [SR 43 737] ({Propanoyl(3-(3-pyridyl))}-FH[Sta]I-{NHC(Me)(CH2OH)2}), 2.14 nM.
For the molecule `CCCC[C@H](NC(=O)[C@H](Cc1ccccc1)NC(=O)OC(C)(C)C)C(=O)N[C@@H](CC(C)C)[C@@H](O)CC(=O)N[C@H](C(=O)NC(CO)(CO)CO)[C@@H](C)CC` [SR 44 094] (Boc-F[Nle][Sta]I-{NHC(CH2OH)3}), the IC50 is 18.2 nM.
On the same count and under the same terms, the result for `CCCC[C@H](NC(=O)[C@H](Cc1ccccc1)NC(=O)OC(C)(C)C)C(=O)N[C@@H](CC1CCCCC1)[C@@H](O)CC(=O)N[C@H](C(=O)NC(C)(CO)CO)[C@@H](C)CC` [SR 43 721] reads 7.76 nM; that for `CCCC[C@H](NC(=O)[C@H](Cc1ccccc1)NC(=O)OC(C)(C)C)C(=O)N[C@@H](CC(C)C)[C@@H](O)CC(=O)N[C@H](C(=O)NC(C)(CO)CO)[C@@H](C)CC` [SR 43 574] (Boc-F[Nle][Sta]I-{NHC(Me)(CH2OH)2}), 2.63 nM; that for `CCCC[C@H](NC(=O)[C@H](Cc1ccccc1)NC(=O)OC(C)(C)C)C(=O)N[C@@H](CC(C)C)[C@@H](O)CC(=O)N[C@H](C(=O)NC1(CO)CCCCC1)[C@@H](C)CC` [SR 43 799] (Boc-F[Nle][Sta]I-X2), 5.5 nM.
In the case of `CCCC[C@H](NC(=O)[C@H](Cc1ccccc1)NC(=O)OC(C)(C)C)C(=O)N[C@@H](CC(C)C)[C@@H](O)CC(=O)N[C@H](C(=O)NC(C)(C)CO)[C@@H](C)CC` [SR 43 686] (Boc-F[Nle][Sta]I-X1), the IC50 was 6.03 nM.
Regarding `CCCC[C@H](NC(=O)[C@H](Cc1ccccc1)NC(=O)OC(C)(C)C)C(=O)N[C@@H](Cc1ccccc1)[C@@H](O)CC(=O)N[C@H](C(=O)NC(CO)(CO)CO)[C@@H](C)CC` [SR 43 576], the IC50 was 3.98 nM.
With `CCCC[C@H](NC(=O)[C@H](Cc1ccccc1)NC(=O)OC(C)(C)C)C(=O)N[C@@H](CC(C)C)[C@@H](O)CC(=O)N[C@@H](C)C(=O)NC(C)(C)CO` [SR 43 860] (Boc-F[Nle][Sta]A-X1), the IC50 was 33.1 nM.
On the same count and under the same terms, the figure for `CCCC[C@H](NC(=O)[C@H](Cc1ccccc1)NC(=O)CCc1cccnc1)C(=O)N[C@@H](CC(C)C)[C@@H](O)CC(=O)N[C@H](C(=O)NC(C)(CO)CO)[C@@H](C)CC` [SR 43 707] ({Propanoyl(3-(3-pyridyl))}-F[Nle][Sta]I-{NHC(Me)(CH2OH)2}) is 3.55 nM.

For another assay, the target named is T2, renin (Homo sapiens, UniProt P00797).
T2 sequence (P00797 67-406): T1 sequence (P00797 67-406)
Experiment: not given
The note with it: cited from earlier work.
Take `CC(C)CC(=O)N[C@H](C(=O)N[C@H](C(=O)N[C@@H](CC(C)C)[C@@H](O)CC(=O)N[C@@H](C)C(=O)N[C@@H](CC(C)C)[C@@H](O)CC(=O)O)C(C)C)C(C)C` [Pepstatin, isovaleryl-L-valyl-L-valyl-statyl-L-alanyl-statin] (Isovaleryl-VV[Sta]A[Sta]-OH): the affinity for renin entry was “low affinity for renin”.

These data come from patent US4840935A, “Peptide amino-alcohol derivatives containing a tetrasubstituted carbon atom, inhibiting renin and acid proteases, process for obtention and therapeutical use” (Sanofi, priority 1985, dated 1989).
